We go through 31 compounds from patent publication US20230183237A1, “COMPETITIVE AND NONCOMPETITIVE INHIBITORS OF THE MUSCARINIC ACETYLCHOLINE RECEPTOR M5” (Vanderbilt University, priority 2020, published 2023).

Read-outs that look alike come from different tables or passages of the source.

As a reminder, the IC50 is the point on the concentration scale where inhibition reaches its midpoint.

The assay has as its target T1, hM5 (Homo sapiens, UniProt P08912).
T1 construct: expressed in transfected cells
T1 sequence (P08912 1-532): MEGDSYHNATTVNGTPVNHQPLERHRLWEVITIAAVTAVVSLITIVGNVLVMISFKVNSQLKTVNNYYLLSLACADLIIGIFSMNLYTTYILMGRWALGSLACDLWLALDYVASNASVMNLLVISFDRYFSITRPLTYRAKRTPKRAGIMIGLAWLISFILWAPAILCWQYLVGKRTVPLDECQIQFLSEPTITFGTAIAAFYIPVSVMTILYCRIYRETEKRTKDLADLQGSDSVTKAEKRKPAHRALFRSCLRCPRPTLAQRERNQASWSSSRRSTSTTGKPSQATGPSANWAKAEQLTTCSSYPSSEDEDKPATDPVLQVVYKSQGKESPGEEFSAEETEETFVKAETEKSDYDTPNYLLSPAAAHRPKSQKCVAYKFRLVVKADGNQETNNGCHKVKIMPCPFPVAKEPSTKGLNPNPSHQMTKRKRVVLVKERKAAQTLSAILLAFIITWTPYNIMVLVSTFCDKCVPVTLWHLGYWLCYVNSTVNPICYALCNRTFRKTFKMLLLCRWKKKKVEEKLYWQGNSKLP
Kind of assay: Calcium mobilization concentration-response (IC50 vs EC80 acetylcholine), CHO hM5. Format: cell-based. Conditions: CELL LINE hM5, read-out: IC50. The method, boiled down: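 IC50 values derive from percent maximal acetylcholine response after an EC80 ACh addition, measured as kinetic calcium fluorescence (static ratio, max−min). Test compounds were added 140 s before agonist. Cells: stable hM5-CHO in HEPES-buffered HBSS with 2.5 mM probenecid, pH 7.4; ≥3 independent triplicate determinations.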
In general terms: A change in cytosolic calcium serves as a functional read-out for many receptors and channels.

[1] abbreviates: calcium mobilization, EC80 acetylcholine addition.

For the compound `O=S(=O)(c1ccc2c(c1)CCO2)N1CCC(c2cn3ncnc3cc2C(F)(F)F)CC1` [Compound 109, 6-(1-((2,3-dihydrobenzofuran-5-yl)sulfonyl)piperidin-4-yl)-7-(trifluoromethyl)-[1,2,4]triazolo[1,5-a]pyridine], the IC50 under setting [1] turned out to be 746 nM.
For the compound `O=S(=O)(c1cnn2c1CCCC2)N1CCC(c2ccncc2)CC1` [Compound 368, 3-((4-(pyridin-4-yl)piperidin-1-yl)sulfonyl)-4,5,6,7-tetrahydropyrazolo[1,5-a]pyridine], under setting [1], the IC50 was greater than 10000 nM.
For `CCc1cc2ncnn2cc1C1CCN(S(=O)(=O)c2nncn2C)CC1` [Compound 514, 7-ethyl-6-(1-((4-methyl-4H-1,2,4-triazol-3-yl)sulfonyl)piperidin-4-yl)-[1,2,4]triazolo[1,5-a]pyridine], the IC50 (vs EC80 acetylcholine) was greater than 10000 nM.
Regarding `Cc1ncc(S(=O)(=O)N2CCC(F)(c3cn4ncnc4cc3C)CC2)s1` [Compound 245, 5-((4-fluoro-4-(7-methyl-[1,2,4]triazolo[1,5-a]pyridin-6-yl)piperidin-1-yl)sulfonyl)-2-methylthiazole], under setting [1], the IC50 is greater than 10000 nM.
`O=S(=O)(c1cnc2sccn12)N1CCC(c2cn3ncnc3cc2F)CC1` [Compound 525, 5-((4-(7-fluoro-[1,2,4]triazolo[1,5-a]pyridin-6-yl)piperidin-1-yl)sulfonyl)imidazo[2,1-b]thiazole]: the IC50 (vs EC80 acetylcholine) is 186 nM.
Turning to `Cc1cc2nccn2nc1C1CCN(S(=O)(=O)c2cc3c(cc2F)OCC3)CC1` [Compound 52, 6-(1-((6-fluoro-2,3-dihydrobenzofuran-5-yl)sulfonyl)piperidin-4-yl)-7-methylimidazo[1,2-b]pyridazine], the IC50 under setting [1] was determined as 5500 nM.
`Cc1c(S(=O)(=O)N2CC=C(c3cn4ncnc4c(F)c3F)CC2)cnn1C` [Compound 379, 6-(1-((1,5-dimethyl-1H-pyrazol-4-yl)sulfonyl)-1,2,3,6-tetrahydropyridin-4-yl)-7,8-difluoro-[1,2,4]triazolo[1,5-a]pyridine]: the IC50 under setting [1] was 243 nM.
Consider `Cc1c(C2CCN(S(=O)(=O)c3cnc4n3CCCC4)CC2)cn2ncnc2c1F` [Compound 349, 8-fluoro-7-methyl-6-(1-((5,6,7,8-tetrahydroimidazo[1,2-a]pyridin-3-yl)sulfonyl)piperidin-4-yl)-[1,2,4]triazolo[1,5-a]pyridine], for which, under setting [1], the IC50 stood at 17 nM.
Turning to `Cc1cc2ncnn2cc1C1CCN(S(=O)(=O)c2c(C(F)(F)F)nn(C)c2C)CC1` [Compound 118, 6-(1-((1,5-dimethyl-3-(trifluoromethyl)-1H-pyrazol-4-yl)sulfonyl)piperidin-4-yl)-7-methyl-[1,2,4]triazolo[1,5-a]pyridine], the half-maximal inhibitory concentration (IC50) under setting [1] came to 81 nM.
As for `COc1cc2ncnn2cc1C1CCN(S(=O)(=O)c2ccc3ncsc3c2)CC1` [Compound 82, 6-((4-(7-methoxy-[1,2,4]triazolo[1,5-a]pyridin-6-yl)piperidin-1-yl)sulfonyl)benzo[d]thiazole], the IC50 under setting [1] was greater than 10000 nM.
The same measure, in the same setting: the value for `Cc1cc(C#N)ncc1C1=CCN(S(=O)(=O)c2cnn(C)c2C)CC1` [Compound 239, 1′-((1,5-dimethyl-1H-pyrazol-4-yl)sulfonyl)-4-methyl-1′,2′,3′,6′-tetrahydro-[3,4′-bipyridine]-6-carbonitrile] was greater than 10000 nM.
For `Cc1nc2n(c1C1CCN(S(=O)(=O)c3cnn(C)c3C)CC1)CCCC2` [Compound 464, 3-(1-((1,5-dimethyl-1H-pyrazol-4-yl)sulfonyl)piperidin-4-yl)-2-methyl-5,6,7,8-tetrahydroimidazo[1,2-a]pyridine], where the note is “vs EC80 acetylcholine”, the IC50 was 275 nM.
For the compound `COc1cc2ncnn2cc1C1CCN(S(=O)(=O)c2cnn(C)c2C)CC1` [Compound 201, 6-(1-((1,5-dimethyl-1H-pyrazol-4-yl)sulfonyl)piperidin-4-yl)-7-methoxy-[1,2,4]triazolo[1,5-a]pyridine], the IC50 under setting [1] came to 765 nM.
Take `Cn1ncc(S(=O)(=O)N2CCC(F)(c3cn4ncnc4cc3F)CC2)c1C(F)F` [Compound 504, 6-(1-((5-(difluoromethyl)-1-methyl-1H-pyrazol-4-yl)sulfonyl)-4-fluoropiperidin-4-yl)-7-fiuoro-[1,2,4]triazolo[1,5-a]pyridine]: where the note is “vs EC80 acetylcholine”, the IC50 amounted to 1260 nM.
On to `O=S(=O)(c1cnn2c1CCC2)N1CCC(c2cn3ncnc3cc2C(F)(F)F)CC1` [Compound 272, 6-(1-((5,6-dihydro-4H-pyrrolo[1,2-b]pyrazol-3-yl)sulfonyl)piperidin-4-yl)-7-(trifluoromethyl)-[1,2,4]triazolo[1,5-a]pyridine], for which the IC50 under setting [1] was determined as 74 nM.
On the same count and under the same terms, the figure for `Cn1ncc(S(=O)(=O)N2CCC(c3cn4ncnc4cc3Cl)CC2)c1C(F)F` [Compound 295, 7-chloro-6-(1-((5-(difluoromethyl)-1-methyl-1H-pyrazol-4-yl)sulfonyl)piperidin-4-yl)-[1,2,4]triazolo[1,5-a]pyridine] is 19 nM.
As for `Cc1cc2ncnn2cc1C1=C(C#N)CN(S(=O)(=O)c2cnn(C)c2Cl)CC1` [Compound 469, 1-((5-chloro-1-methyl-1H-pyrazol-4-yl)sulfonyl)-4-(7-methyl-[1,2,4]triazolo[1,5-a]pyridin-6-yl)-1,2,5,6-tetrahydropyridine-3-carbonitrile], where the note is “vs EC80 acetylcholine”, the IC50 was 1640 nM.
For the compound `Cc1c(C2CCN(S(=O)(=O)c3cnn4c3CCC4)CC2)cn2ncnc2c1F` [Compound 268, 6-(1-((5,6-dihydro-4H-pyrrolo[1,2-b]pyrazol-3-yl)sulfonyl)piperidin-4-yl)-8-fluoro-7-methyl-[1,2,4]triazolo[1,5-a]pyridine], the IC50 under setting [1] was determined as 14 nM.
On to `Cc1cc2ncnn2cc1C1CCN(S(=O)(=O)c2cn(C)nn2)CC1` [Compound 572, 7-methyl-6-(1-((1-methyl-1H-1,2,3-triazol-4-yl)sulfonyl)piperidin-4-yl)-[1,2,4]triazolo[1,5-a]pyridine], for which the 50% inhibitory concentration (IC50) (vs EC80 acetylcholine) amounted to 42 nM.
Consider `Cc1cc2ncccc2cc1C1CCN(S(=O)(=O)c2cnn(C)c2Cl)CC1` [Compound 417, 6-(1-((5-chloro-1-methyl-1H-pyrazol-4-yl)sulfonyl)piperidin-4-yl)-7-methylquinoline], for which the IC50 (vs EC80 acetylcholine) came to 34 nM.
For `O=S(=O)(c1ccc2ncsc2c1)N1CCC(c2cc3cc[nH]c3cn2)CC1` [Compound 25, 6-((4-(1H-pyrrolo[2,3-c]pyridin-5-yl)piperidin-1-yl)sulfonyl)benzo[d]thiazole], the IC50 under setting [1] was greater than 10000 nM.
On to `Cc1c(S(=O)(=O)N2CC=C(c3cnc4ncnn4c3C)CC2)cnn1C` [Compound 243, 6-(1-((1,5-dimethyl-1H-pyrazol-4-yl)sulfonyl)-1,2,3,6-tetrahydropyridin-4-yl)-7-methyl-[1,2,4]triazolo[1,5-a]pyrimidine], for which the 50% inhibitory concentration (IC50) under setting [1] was greater than 10000 nM.
Consider `Cc1cc2ncnn2cc1C1CCN(S(=O)(=O)c2cn(C)c(C)n2)CC1` [Compound 320, 6-(1-((1,2-dimethyl-1H-imidazol-4-yl)sulfonyl)piperidin-4-yl)-7-methyl-[1,2,4]triazolo[1,5-a]pyridine], for which the IC50 under setting [1] amounted to 7200 nM.
Same read-out and setting: the value for `O=S(=O)(c1ccc2c(c1)CCO2)N1CCC(c2cc3[nH]ccc3cn2)CC1` [Compound 29, 6-(1-((2,3-dihydrobenzofuran-5-yl)sulfonyl)piperidin-4-yl)-1H-pyrrolo[3,2-c]pyridine] was 2000 nM; that for `Cc1nc2cc(C)c(C3CCN(S(=O)(=O)c4ccc5c(c4)CCO5)CC3)cn2n1` [Compound 76, 6-(1-((2,3-dihydrobenzofuran-5-yl)sulfonyl)piperidin-4-yl)-2,7-dimethyl-[1,2,4]triazolo[1,5-a]pyridine] was greater than 10000 nM.
As to `Cn1cnnc1S(=O)(=O)N1CCC(c2cn3ncnc3cc2Cl)CC1` [Compound 541, 7-chloro-6-(1-((4-methyl-4H-1,2,4-triazol-3-yl)sulfonyl)piperidin-4-yl)-[1,2,4]triazolo[1,5-a]pyridine], the half-maximal inhibitory concentration (IC50) (vs EC80 acetylcholine) amounted to 261 nM.
On to `Cc1cc2ncnn2cc1C1CCN(S(=O)(=O)c2cnn(C)c2C(F)(F)F)CC1` [Compound 162, 7-methyl-6-(1-((1-methyl-5-(trifluoromethyl)-1H-pyrazol-4-yl)sulfonyl)piperidin-4-yl)-[1,2,4]triazolo[1,5-a]pyridine], for which, under setting [1], the IC50 stood at 96 nM.
Same read-out and setting: the value for `Cc1ncc(S(=O)(=O)N2CC=C(c3cn4ncnc4cc3Cl)CC2)n1C` [Compound 224, 7-chloro-6-(1-((1,2-dimethyl-1H-imidazol-5-yl)sulfonyl)-1,2,3,6-tetrahydropyridin-4-yl)-[1,2,4]triazolo[1,5-a]pyridine] was 12 nM; that for `O=S(=O)(c1ccc2c(c1)CCO2)N1CCC(c2cc3cc[nH]c3nn2)CC1` [Compound 21, 3-(1-((2,3-dihydrobenzofuran-5-yl)sulfonyl)piperidin-4-yl)-7H-pyrrolo[2,3-c]pyridazine] was 2200 nM; that for `O=S(=O)(c1ccc(Cl)nc1)N1CCC(c2cn3ncnc3cc2C(F)(F)F)CC1` [Compound 112, 6-(1-((6-chloropyridin-3-yl)sulfonyl)piperidin-4-yl)-7-(trifluoromethyl)-[1,2,4]triazolo[1,5-a]pyridine] was greater than 10000 nM.
As for `CCc1cc2ncnn2cc1C1CCN(S(=O)(=O)c2cnn(C)c2C(F)F)CC1` [Compound 301, 6-(1-((5-(difluoromethyl)-1-methyl-1H-pyrazol-4-yl)sulfonyl)piperidin-4-yl)-7-ethyl-[1,2,4]triazolo[1,5-a]pyridine], the IC50 under setting [1] was 85 nM.
